Assays:
Format in all cases: in vivo
[1] = test system: Cabbage Looper (Trichoplusia ni, TRIPNI); assay: Bioassay on Cabbage Looper (CL), 128-well diet tray assay; settings: 168 h, 50 μg/cm^2 on artificial diet, second instar larvae, five to seven days, 25° C., read-out: CL % Control (or Mortality) rating
In short: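 Diet-tray assay: 1–5 second-instar larvae per well on artificial diet surface-treated with 50 μg/cm^2 compound (90:10 acetone-water, dried), eight wells per compound. Held at 25° C., 14:10 light-dark for five to seven days; percent mortality per well averaged across the eight wells.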

[2] = test system: Beet Armyworm (Spodoptera exigua, LAPHEG); assay: Bioassay on Beet Armyworm (BAW), 128-well diet tray assay; settings: 168 h, 50 μg/cm^2 on artificial diet, second instar larvae, five to seven days, 25° C., read-out: BAW % Control (or Mortality) rating
In short: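 Artificial diet was surface-treated with 50 μg/cm^2 of compound in 90:10 acetone-water and dried; one to five second-instar larvae were placed per well, eight wells per treatment. Held at 25 °C, 14:10 light-dark, for five to seven days, then percent mortality per well was averaged.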

[3] = test system: Green Peach Aphid (Myzus persicae, MYZUPE); assay: Bioassay on Green Peach Aphid (GPA), foliar spray on infested cabbage seedlings; settings: 72 h, 200 ppm foliar spray, three days, Abbott corrected % control, read-out: GPA % Control (or Mortality) rating
Experimental: Example B: Bioassays on Green Peach Aphid (Myzus Persicae, MYZUPE) (“GPA”)
Certain molecules disclosed in this document were tested against GPA using procedures described in the following example. In the reporting of the results, the “GPA & YFM Rating Table” was used (See Table Section).
Cabbage seedlings grown in 3-inch pots, with 2-3 small (3-5 cm) true leaves, were used as test substrate. The seedlings were infested with 20-50 GPA (wingless adult and nymph stages) one day prior to chemical application. Four pots with individual seedlings were used for each treatment. Test molecules (2 mg) were dissolved in 2 mL of acetone/methanol (1:1) solvent, forming stock solutions of 1000 ppm test molecule. The stock solutions were diluted 5× with 0.025% Tween 20 in water to obtain the solution at 200 ppm test molecule. A hand-held aspirator-type sprayer was used for spraying a solution to both sides of […] leaves until runoff. Reference plants (solvent check) were sprayed with the diluent only containing 20% by volume of acetone/methanol (1:1) solvent. Treated plants were held in a holding room for three days at approximately 25° C. and ambient relative humidity (RH) prior to grading. Evaluation was conducted by counting the number of live aphids per plant under a microscope. Percent Control was measured by using Abbott's correction formula (W. S. Abbott, “A Method of Computing the Effectiveness of an Insecticide” J. Econ. Entomol. 18 (1925), pp. 265-267) as follows. Corrected % Control=100*(X−Y)/X • where • X=No. of live aphids on solvent check plants and • Y=No. of live aphids on treated plants

[4] = test system: Yellow Fever Mosquito (Aedes aegypti, AEDSAE); settings: about 1 day-old larvae, 3 days, room temperature, scored on mortality
In short: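 Compounds from DMSO master plates (4000 ppm stock) diluted with 90:10 water:acetone, then about 1-day-old larvae in liver-powder water added. Held covered at room temperature for 3 days; each well scored for mortality.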

SMILES	mortality at 50 µg/cm2 [1] [%]	mortality at 50 µg/cm2 [2] [%]	mortality at 200 ppm [3] [%]	YFM % Control (or Mortality) rating [4]
C[C@H](CSCC(F)(F)F)NC(=O)c1ccc(/C(F)=C/C(c2cc(Cl)c(Cl)c(Cl)c2)C(F)(F)F)cc1C(F)(F)F (stereo partly drawn) [F1, 4-((Z)-1,4,4,4-tetrafluoro-3-(3,4,5-trichlorophenyl)but-1-en-1-yl)-N—((R)-1-((2,2,2-trifluoroethyl)thio)propan-2-yl)-2-(trifluoromethyl)benzamide]	50 to 100	50 to 100	0 to 80	
C[C@H](CS(=O)(=O)CC(F)(F)F)NC(=O)c1ccc(/C(F)=C/C(c2cc(Cl)c(Cl)c(Cl)c2)C(F)(F)F)cc1C(F)(F)F (stereo partly drawn) [F2, 4-((Z)-1,4,4,4-tetrafluoro-3-(3,4,5-trichlorophenyl)but-1-en-1-yl)-N—((R)-1-((2,2,2-trifluoroethyl)sulfonyl)propan-2-yl)-2-(trifluoromethyl)benzamide]	50 to 100	50 to 100	0 to 80	
C[C@H](C[S+]([O-])CC(F)(F)F)NC(=O)c1ccc(/C(F)=C/C(c2cc(Cl)c(Cl)c(Cl)c2)C(F)(F)F)cc1C(F)(F)F (stereo partly drawn) [F3, 4-((Z)-1,4,4,4-tetrafluoro-3-(3,4,5-trichlorophenyl)but-1-en-1-yl)-N-((2R)-1-((2,2,2-trifluoroethyl)sulfinyl)propan-2-yl)-2-(trifluoromethyl)benzamide]	50 to 100	50 to 100	0 to 80	
C[C@H](CSCC(F)(F)F)NC(=O)c1ccc(/C(F)=C/C(c2cc(Br)c(Cl)c(Br)c2)C(F)(F)F)cc1C(F)(F)F (stereo partly drawn) [F21, 4-((Z)-3-(3,5-Dibromo-4-chlorophenyl)-1,4,4,4-tetrafluorobut-1-en-1-yl)-N—((R)-1-((2,2,2-trifluoroethyl)thio)propan-2-yl)-2-(trifluoromethyl)benzamide]	50 to 100	50 to 100	80 to 100	A (80-100)
C[C@H](CS(=O)(=O)CC(F)(F)F)NC(=O)c1ccc(/C(F)=C/C(c2cc(Br)c(Cl)c(Br)c2)C(F)(F)F)cc1C(F)(F)F (stereo partly drawn) [F22, 4-((Z)-3-(3,5-Dibromo-4-chlorophenyl)-1,4,4,4-tetrafluorobut-1-en-1-yl)-N—((R)-1-((2,2,2-trifluoroethyl)sulfonyl)propan-2-yl)-2-(trifluoromethyl)benzamide]	50 to 100	50 to 100	0 to 80	A (80-100)
CCS(=O)(=O)C[C@@H](C)NC(=O)c1ccc(/C(F)=C/C(c2cc(Br)cc(Br)c2)C(F)(F)F)cc1C(F)(F)F (stereo partly drawn) [F42, 4-((Z)-3-(3,5-Dibromophenyl)-1,4,4,4-tetrafluorobut-1-en-1-yl)-N—((R)-1-(ethylsulfonyl)propan-2-yl)-2-(trifluoromethyl)benzamide]	50 to 100	50 to 100	0 to 80	A (80-100)
CCS(=O)(=O)C[C@@H](C)NC(=O)c1ccc(/C(F)=C/C(c2cc(Cl)c(F)c(Cl)c2)C(F)(F)F)cc1C(F)(F)F (stereo partly drawn) [F43, 4-((Z)-3-(3,5-Dichloro-4-fluorophenyl)-1,4,4,4-tetrafluorobut-1-en-1-yl)-N—((R)-1-(ethylsulfonyl)propan-2-yl)-2-(trifluoromethyl)benzamide]	50 to 100	50 to 100	80 to 100	A (80-100)
CCS(=O)(=O)C[C@@H](C)NC(=O)c1ccc(/C(F)=C/C(c2ccc(Cl)c(Cl)c2)C(F)(F)F)cc1C(F)(F)F (stereo partly drawn) [F46, 4-((Z)-3-(3,4-Dichlorophenyl)-1,4,4,4-tetrafluorobut-1-en-1-yl)-N—((R)-1-(ethylsulfonyl)propan-2-yl)-2-(trifluoromethyl)benzamide]	50 to 100	50 to 100	0 to 80	B (More than 0-Less than 80)
C[C@H](C[S+](C)[O-])NC(=O)c1ccc(/C(F)=C/C(c2cc(Cl)c(Cl)c(Cl)c2)C(F)(F)F)cc1C(F)(F)F (stereo partly drawn) [F88, N-((2R)-1-(Methylsulfinyl)propan-2-yl)-4-((Z)-1,4,4,4-tetrafluoro-3-(3,4,5-trichlorophenyl)but-1-en-1-yl)-2-(trifluoromethyl)benzamide]	50 to 100	50 to 100	80 to 100	
C[C@H](CS(=O)(=O)CCC(F)(F)F)NC(=O)c1ccc(/C(F)=C/C(c2cc(Cl)c(Cl)c(Cl)c2)C(F)(F)F)cc1C(F)(F)F (stereo partly drawn) [F130, 4-((Z)-1,4,4,4-tetrafluoro-3-(3,4,5-trichlorophenyl)but-1-en-1-yl)-2-(trifluoromethyl)-N—((R)-1-((3,3,3-trifluoropropyl)sulfonyl)propan-2-yl)benzamide]	50 to 100	50 to 100		B (More than 0-Less than 80)
CCC(F)(F)c1cc(Cl)cc(C(/C=C(\F)c2ccc(C(=O)N[C@H](C)CS(=O)(=O)CC(F)(F)F)c(C(F)(F)F)c2)C(F)(F)F)c1 (stereo partly drawn) [F131, 4-((Z)-3-(3-Chloro-5-(1,1-difluoropropyl)phenyl)-1,4,4,4-tetrafluorobut-1-en-1-yl)-N—((R)-1-((2,2,2-trifluoroethyl)sulfonyl)propan-2-yl)-2-(trifluoromethyl)benzamide]	50 to 100	50 to 100		A (80-100)
CCc1ccc(C(/C=C(\F)c2ccc(C(=O)N[C@H](C)CS(=O)(=O)CC(F)(F)F)c(C(F)(F)F)c2)C(F)(F)F)cc1Cl (stereo partly drawn) [F141, 4-((Z)-3-(3-Chloro-4-ethylphenyl)-1,4,4,4-tetrafluorobut-1-en-1-yl)-N—((R)-1-((2,2,2-trifluoroethyl)sulfonyl)propan-2-yl)-2-(trifluoromethyl)benzamide]	50 to 100	50 to 100		D (No activity noticed in this bioassay)
COc1ccc(C(/C=C(\F)c2ccc(C(=O)N[C@H](C)CS(=O)(=O)CC(F)(F)F)c(C(F)(F)F)c2)C(F)(F)F)cc1Cl (stereo partly drawn) [F142, 4-((Z)-3-(3-Chloro-4-methoxyphenyl)-1,4,4,4-tetrafluorobut-1-en-1-yl)-N—((R)-1-((2,2,2-trifluoroethyl)sulfonyl)propan-2-yl)-2-(trifluoromethyl)benzamide]	50 to 100	50 to 100		B (More than 0-Less than 80)
CCCC(F)(F)c1cc(Cl)cc(C(/C=C(\F)c2ccc(C(=O)N[C@H](C)CS(=O)(=O)CC(F)(F)F)c(C(F)(F)F)c2)C(F)(F)F)c1 (stereo partly drawn) [F143, 4-((Z)-3-(3-Chloro-5-(1,1-difluorobutyl)phenyl)-1,4,4,4-tetrafluorobut-1-en-1-yl)-N—((R)-1-((2,2,2-trifluoroethyl)sulfonyl)propan-2-yl)-2-(trifluoromethyl)benzamide]	50 to 100	50 to 100		D (No activity noticed in this bioassay)
C[C@H](CS(=O)(=O)CC(F)(F)F)NC(=O)c1ccc(/C(F)=C/C(c2cc(Cl)c(Cl)c(Cl)c2)C(F)(F)F)c2ccccc12 (stereo partly drawn) [PF1, 4-((Z)-1,4,4,4-Tetrafluoro-3-(3,4,5-trichlorophenyl)but-1-en-1-yl)-N—((R)-1-((2,2,2-trifluoroethyl)sulfonyl)propan-2-yl)-1-naphthamide]	50 to 100	50 to 100		A (80-100)
C[C@H](CS(=O)(=O)CC(F)(F)F)NC(=O)c1ccc(/C(F)=C/C(c2ccc(Br)c(Cl)c2)C(F)(F)F)cc1C(F)(F)F (stereo partly drawn) [PF5, 4-((Z)-3-(4-Bromo-3-chlorophenyl)-1,4,4,4-tetrafluorobut-1-en-1-yl)-N—((R)-1-((2,2,2-trifluoroethyl)sulfonyl)propan-2-yl)-2-(trifluoromethyl)benzamide]	50 to 100	50 to 100		B (More than 0-Less than 80)

Source: patent US10681908B2, “Molecules having pesticidal utility, and intermediates, compositions, and processes, related thereto” (Dow AgroSciences LLC, priority 2016, dated 2020)
